Measured values from PubChem BioAssay (NCI).
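Dose response: 5 concentrations. Exposure: 48 h. Format: 96-well plates. Endpoint: linear interpolation; highest concentration if not reached. GI50 marks 50% less growth. TGI: concentration producing complete growth inhibition.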

Columns and labels:
Experiment in all cases: NCI-60 cell line screen, 48 h
HCT-15 colon = system: HCT-15 colon
ACHN renal = system: ACHN renal
HCT-116 colon = system: HCT-116 colon
NCI-H522 lung = system: NCI-H522 lung
SK-MEL-2 melanoma = system: SK-MEL-2 melanoma
SF-295 CNS = system: SF-295 CNS
LOX IMVI melanoma = system: LOX IMVI melanoma
SK-OV-3 ovarian = system: SK-OV-3 ovarian
OVCAR-4 ovarian = system: OVCAR-4 ovarian
SR leukemia = system: SR leukemia

| SMILES | GI50 (HCT-15 colon) [µM] | TGI (HCT-15 colon) [µM] | GI50 (ACHN renal) [µM] | TGI (ACHN renal) [µM] | GI50 (HCT-116 colon) [µM] | TGI (HCT-116 colon) [µM] | GI50 (NCI-H522 lung) [µM] | TGI (NCI-H522 lung) [µM] | GI50 (SK-MEL-2 melanoma) [µM] | TGI (SK-MEL-2 melanoma) [µM] | GI50 (SF-295 CNS) [µM] | TGI (SF-295 CNS) [µM] | GI50 (LOX IMVI melanoma) [µM] | TGI (LOX IMVI melanoma) [µM] | GI50 (SK-OV-3 ovarian) [µM] | TGI (SK-OV-3 ovarian) [µM] | GI50 (OVCAR-4 ovarian) [µM] | TGI (OVCAR-4 ovarian) [µM] | TGI (SR leukemia) [µM] | GI50 (SR leukemia) [µM] |
| --- | --- | --- | --- | --- | --- | --- | --- | --- | --- | --- | --- | --- | --- | --- | --- | --- | --- | --- | --- | --- |
| O=C1NC(=O)C(N2CCc3ccccc32)=C1c1ccc(Cl)cc1 | > 25 | > 25 | > 25 | > 25 | > 10.2 | > 16.6 | > 25 | > 25 | > 25 | > 25 | > 25 | > 25 | > 25 | > 25 | > 25 | > 25 | > 25 | > 25 |  |  |
| CN(C(=O)C12C3C4C1C1C2C3C41C(=O)N(C)C(C)(C)C)C(C)(C)C (stereo not given) |  | > 50 |  | > 50 |  | > 50 |  | > 50 |  |  |  | > 50 |  |  |  | > 50 |  |  | > 50 |  |
| O=c1c2cc(Br)ccc2[nH]c(=S)n1-c1ccccc1 |  | > 100 |  | > 100 |  | > 100 |  |  |  | > 100 |  | > 100 |  | > 100 |  | > 100 |  | > 100 |  |  |
| O=c1[nH]cc(CO)c(=O)[nH]1 | > 100 | > 100 | > 100 | > 100 | > 100 | > 100 | > 100 | > 100 | > 100 | > 100 | > 100 | > 100 | > 100 | > 100 | > 100 | > 100 |  |  | > 100 | > 100 |
| Cc1ccc(NC(C(=O)c2ccccc2)c2ccccc2)cc1 (stereo not given) | 27.7 | > 100 | 7.94 | > 100 | 2.04 | 12.4 |  |  |  |  | 2.38 | 8.71 | 3.22 | 39.4 | 15.8 | 58.2 | 3.93 | > 100 | 52.9 | 4.26 |
| CCOc1ccc(/C=N\N2C(=O)c3ccccc3C2=O)cc1 |  | > 100 |  | > 100 |  | > 100 |  |  |  | > 100 |  | > 100 |  | > 100 |  |  |  | > 100 | > 100 |  |
| C/C(=C\CCc1ccsc1)CC/C=C(\C)CCCN1CCN(CCO)CC1 | 2.42 | 6.31 | 4.67 | 17.4 | 2.71 | 9.26 | 1.91 | 4.71 |  |  | 2.29 | 5.64 | 1.8 | 3.37 | 7.58 | 21 | 2.7 | 14.7 | 4.71 | 1.93 |
| CC(=O)NC1CCCN(O)C(=O)/C=C(/C)CCOC(=O)C(NC(C)=O)CCCN(O)C(=O)/C=C(/C)CCOC(=O)C(NC(C)=O)CCCN(O)C(=O)/C=C(/C)CCOC1=O.[Fe] (stereo not given) | > 100 | > 100 | > 100 | > 100 | > 100 | > 100 | > 100 | > 100 | > 100 | > 100 | > 100 | > 100 | > 100 | > 100 |  |  | > 100 | > 100 | > 100 | > 100 |
| CC(C)(C)C1CCC(CI)(N=[N+]=[N-])CC1 (stereo not given) |  | > 100 |  | > 100 |  | > 100 |  | > 100 |  | > 100 |  | > 100 |  |  |  | > 100 |  | > 100 | > 100 |  |
